# Experimental data from patent US9162979B2, “1,5-Diary1-2-alkylpyrrole-3-substituted nitro esters, selective COX-2 inhibitors and nitric oxide donors” (ROTTAPHARM BIOTECH S.R.L., priority 2010, dated 2015).
# What was measured:
# [1] = system: isolated rings of thoracic aorta; test: Evaluation of release of NO: vasorelaxing activity on endothelium-denuded aortic rings contracted with KCl; set-up: species or system rat; settings: for IC50 / Emax: Rattus norvegicus; for IC50: read-out: NO release properties pIC50 (vasorelaxing potency) (converted); for Emax: relative to contractile tone induced by 20 mM KCl, 1 nM-10 μM, read-out: NO release properties Emax (maximum vasorelaxing effect); for vasorelaxing effect in the presence of ODQ: ODQ 1 μM, guanylate cyclase inhibitor
# Procedure: The activity of the compounds was evaluated on isolated rings of thoracic aorta of normotensive male Wistar rats (250-350 g). After light anaesthesia with ether, the rats were sacrificed by cervical dislocation and exsanguination. The aortas were immediately excised, extraneous tissues were removed and the endothelial layer was removed by gently rubbing the surface with a hypodermic needle. Rings of aorta with a width of 5 mm were suspended, with a preload of 2 g, in 20-ml organ baths, containing a solution of “Tyrode” (composition of the saline solution in mM: NaCl 136.8; KCl 2.95; CaCl2 1.80; MgSO4 1.05; NaH2PO4 0.41; NaHCO3 11.9; glucose 5.5), thermostatically controlled at 37° C. and kept in an atmosphere of O2 (95%) and CO2 (5%). […] were recorded by means of an isometric transducer (FTO3 Erba), connected to a microdynamometer (Buxco Electronics).
# 60 minutes after preparation, removal of the endothelium was confirmed by acetylcholine (ACH) (10 μM) treatment of the vascular rings pre-contracted with KCl (20 mM). Relaxation of less than 10% of the contraction induced by KCl was considered as representative of acceptable removal of the endothelial layer, whereas organs displaying relaxation ≧10% were discarded. 40 minutes after confirmation of complete removal of the endothelium, the aortas were contracted by treatment with a single dose of KCl (20 mM) and after the contraction reached a stable plateau, increasing cumulative concentrations (with progressive increments of 3 times) of the test compounds (1 nM-10 μM) were added. It was found from preliminary experiments that the contraction induced by KCl (20 mM) remained stable in a tonic state for at least 40 minutes. The same experiments were performed in the presence of a well-known inhibitor of guanylate cyclase: ODQ 1 μM, which was incubated in aorta preparations after confirmation of removal of the endothelium.
# Analysis of the results. The vasorelaxing activity was evaluated as a percentage (%) relative to the contractile tone induced by 20 mM KCl. The pharmacodynamic efficacy parameter (Emax) corresponds to the maximum vasorelaxing effect induced by the molecule tested, expressed as percentage relative to the contractile tone induced by 20 mM KCl. When the limit concentration of 10 μM (the highest concentration administered) of the test compounds has not reached the maximum effect, the efficacy parameter (Emax) corresponds to the vasorelaxing effect induced by the limit concentration (expressed as percentage relative to the contractile tone induced by 20 mM KCl). The pharmacodynamic parameter of potency of the compounds was expressed as pIC50 calculated as the negative logarithm of the molar concentration of test compound that reduces the contractile tone induced by 20 mM KCl by half. […] The parameters of efficacy and potency were expressed as mean±standard error, for 5-10 experiments. The experimental data were analysed by the program GraphPad Prism 3.0.
# [2] = system: mouse abdominal contraction (writhing) induced by acetic acid; test: Abdominal constriction test induced by acetic acid; type: in vivo
# Procedure: (§1) Male Swiss albino mice (23-25 g) and Wistar rats (150-200 g) were used.
# The antinociceptive activity was determined by the mouse abdominal contraction test using acetic acid (0.6%), which induces writhing, according to Koster's method (Fed. Proc., 1959, 18, 412-418). The number of stretching movements was counted for 10 minutes, starting 5 minutes after injection of acetic acid. The results relating to analgesic activity in the abdominal constriction test with representative compounds of the invention are shown in Table 10.
# The test was carried out using 10 animals in the treated group and 20 in the control group (CMC); all the compounds were administered per os with the exception of the compound of Example 8, which was administered i.p.
# COX-2 = COX-2 (Mus musculus (Mouse), UniProt Q05769); test: Evaluation of COX-2 activity: PGE2 production in LPS-stimulated J774 cells; type: cell-based, murine; settings: J774 cells stimulated 24 hours with LPS 10 μg/mL; PGE2 by radio-immunological assay; read-out: Cyclooxygenase inhibition COX-2 IC50
# Procedure: The murine monocyte/macrophage cell line J774 is grown in Dulbecco's modified Eagle's medium (DMEM), enriched with glutamine (2 mM), HEPES (25 mM), penicillin (100 u/mL), streptomycin (100 μg/mL), 10% of fetal bovine serum (FBS) and 1.2% of sodium pyruvate. […] Just before the experiments, the culture medium is replaced with fresh medium without FBS to avoid interference during the radio-immunological phase and the cells are stimulated as described below.
# The supernatants are collected for evaluating, by means of radio-immunological assays, the amount of PGE2 produced.
# In each group of experiments, wells were used in triplicate for the different treatment conditions. […] The data were evaluated using the sigmoidal dose-response equation (variable slope) (GraphPad software). IC50 and the 95% precision intervals were calculated with the program GraphPad Instat (GraphPad software).
# [3] = system: carrageenan-induced inflammatory state in the rat; test: Carrageenan test: nociceptive threshold (weight supported); type: in vivo; settings: 10 mg/kg per os
# Procedure: as §1
# The nociceptive threshold in the rat was determined with an analgesiometer, as described by Leighton et al. (Br. J. Pharmacol., 1988, 93, 553-560), the pressure was measured before the treatment and after 30 and 60 min. To reproduce the inflammatory state in the rat, carrageenan was administered i.p. (0.1 ml, 1%) 4 h before the test.
# (§2) The test was performed using 6 animals per group, all the compounds were administered per os, 30 min before the test. The carrageenan is administered 2 h before the test.
# [4] = system: rat paw oedema induced by carrageenan; test: Volume of oedema test (carrageenan); type: in vivo; settings: 10 mg/kg per os
# Procedure: The rat paw volumes were measured using a pletismometer. Four hours after injecting carrageenan 1.0% (0.1 ml injection), the volume of the right hind-paw was measured and compared with that of controls treated with a saline/carrageenan solution. The rats were administered the test compounds 3.5 hours after the carrageenan. The results are given as paw volume expressed in ml. The results relating to the analgesic and anti-oedemic activity in the carrageenan test for some representative compounds of the invention are shown in Table 11.
# as §2
# rat liver homogenate = test: Evaluation of release of nitrites in hepatic homogenate; settings: nitrite after 4 hours, 1 mM, 37° C., as percentage of SNP
# Description: By evaluating the time-dependent increase in nitrite concentrations in the liver homogenate, it was possible to extrapolate two descriptive parameters:
# Time (in minutes) required for an amount of nitrite to be released by the test compound equal to half its maximum release.
# [5] = concentration reducing contractile tone induced by 20 mM KCl by half
# Sequence of COX-2 (Q05769 18-604): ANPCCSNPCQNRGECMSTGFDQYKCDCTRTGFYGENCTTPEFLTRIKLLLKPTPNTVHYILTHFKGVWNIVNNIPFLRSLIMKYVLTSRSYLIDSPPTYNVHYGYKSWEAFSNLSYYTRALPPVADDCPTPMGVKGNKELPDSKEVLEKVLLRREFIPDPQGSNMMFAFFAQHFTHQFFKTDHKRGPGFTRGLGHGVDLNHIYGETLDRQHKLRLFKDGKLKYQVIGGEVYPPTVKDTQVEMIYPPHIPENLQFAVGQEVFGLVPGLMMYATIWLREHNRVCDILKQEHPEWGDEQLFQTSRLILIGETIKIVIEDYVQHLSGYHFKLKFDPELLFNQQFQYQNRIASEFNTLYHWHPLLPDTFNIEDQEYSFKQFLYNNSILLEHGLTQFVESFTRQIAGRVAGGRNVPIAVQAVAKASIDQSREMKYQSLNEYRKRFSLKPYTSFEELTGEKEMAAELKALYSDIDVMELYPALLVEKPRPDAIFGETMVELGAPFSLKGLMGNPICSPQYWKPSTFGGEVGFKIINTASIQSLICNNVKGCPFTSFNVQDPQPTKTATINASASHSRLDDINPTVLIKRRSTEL
Structure (SMILES),"IC50 [1, 5]",Emax [1],N writhes ([2]; 40 mg/kg per os),IC50 (COX-2),N writhes ([2]; 20 mg/kg per os),melting point,further results
"Cc1c(C(N)C(=O)OCCO[N+](=O)[O-])cc(-c2ccc(S(C)(=O)=O)cc2)n1-c1ccc(F)cc1 (racemic) [Example 16, (R,S)-2-(Nitrooxy)ethyl-[2-amino-2-[1-(4-fluorophenyl)-2-methyl-5-(4-methylsulphonylphenyl)-1H-pyrrol-3-yl]]-acetate]",1120 nM,80 ± 7%,24.9 ± 3.0,740 nM,,,
"Cc1c(C(N)C(=O)OCCCO[N+](=O)[O-])cc(-c2ccc(S(C)(=O)=O)cc2)n1-c1ccc(F)cc1 (racemic) [Example 18, (R,S)-3-(Nitrooxy)propyl-[2-amino-2-[1-(4-fluorophenyl)-2-methyl-5-(4-methylsulphonylphenyl)-1H-pyrrol-3-yl]]-acetate]",2190 nM,84 ± 2%,13.5 ± 2.8,820 nM,18.1 ± 3.0,,vasorelaxing effect in the presence of ODQ [1]: not fully antagonized by ODQ; N writhes ([2]; 3 mg/kg per os): 26.9 ± 2.6; N writhes ([2]; 10 mg/kg per os): 21.3 ± 2.5
"Cc1c(C(N)C(=O)OCCCCO[N+](=O)[O-])cc(-c2ccc(S(C)(=O)=O)cc2)n1-c1ccc(F)cc1 (racemic) [Example 20, (R,S)-4-(Nitrooxy)butyl-[2-amino-2-[1-(4-fluorophenyl)-2-methyl-5-(4-methylsulphonylphenyl)-1H-pyrrol-3-yl]]-acetate]",1550 nM,93 ± 1%,19.8 ± 2.4,1000 nM,,108 °C,vasorelaxing effect in the presence of ODQ [1]: not fully antagonized by ODQ
"Cc1c(CC(=O)NC(CCO[N+](=O)[O-])C(=O)O)cc(-c2ccc(S(C)(=O)=O)cc2)n1-c1ccc(F)cc1 (racemic) [Example 32, (R,S)-4-(Nitroxy)-2-[[1-(4-fluorophenyl)-2-methyl-5-(4-methylsulphonylphenyl)-1H-pyrrol-3-yl]acetamido]butanoic Acid]",,42 ± 9%,,1600 nM,14.6 ± 2.7,,N writhes ([2]; 10 mg/kg per os): 22.8 ± 3.0
"Cc1ccc(-c2cc(C(F)(F)F)nn2-c2ccc(S(N)(=O)=O)cc2)cc1 [Celecoxib, reference compound]",,,,,,,Weight supported (g) After treatment 30 min [3]: 52.9 ± 3.1 g; Weight supported (g) After treatment 60 min [3]: 48.3 ± 3.4 g; Weight supported (g) Before treatment ([3]; baseline before treatment): 30.9 ± 2.6 g; Oedema Volume [4]: 1.91 ± 0.04 mL
"COc1ccc(-n2c(-c3ccc(S(C)(=O)=O)cc3)cc(CC(=O)OCCO[N+](=O)[O-])c2C)cc1 [Example 4, 2-(Nitrooxy)ethyl-[1-(4-methoxy-phenyl)-2-methyl-5-(4-methylsulphonylphenyl)-1H-pyrrol-3-yl]-acetate]",178 nM,77 ± 2%,17.7 ± 2.3,170 nM,,122 °C,
"Cc1c(CC(=O)OCCCO[N+](=O)[O-])cc(-c2ccc(S(C)(=O)=O)cc2)n1-c1cccc(F)c1 [Example 8, 3-(Nitroxy)propyl-[1-(3-fluorophenyl)-2-methyl-5-(4-methylsulphonylphenyl)-1H-pyrrol-3-yl]-acetate]",162 nM,82 ± 1%,,7 nM,,,N writhes ([2]; 20 mg/kg i.p.): 16.9 ± 2.4
"COc1ccc(-n2c(-c3ccc(S(C)(=O)=O)cc3)cc(CC(=O)OCCCO[N+](=O)[O-])c2C)cc1 [Example 9, 3-(Nitroxy)propyl-[1-(4-methoxyphenyl)-2-methyl-5-(4-methylsulphonylphenyl)-1H-pyrrol-3-yl]-acetate]",,41 ± 11%,,2 nM,18.4 ± 3.1,115 °C,
"Cc1c(CC(=O)OCCCCO[N+](=O)[O-])cc(-c2ccc(S(C)(=O)=O)cc2)n1-c1cccc(F)c1 [Example 12, 4-(Nitrooxy)butyl-2-[1-(3-fluorophenyl)-2-methyl-5-(4-methylsulphonylphenyl)-1H-pyrrol-3-yl]acetate]",3980 nM,57 ± 14%,25.1 ± 2.3,69 nM,,114 °C,
"COc1ccc(-n2c(-c3ccc(S(C)(=O)=O)cc3)cc(CC(=O)OCCCCO)c2C)cc1 [Example 13-II, 4-(Hydroxy)butyl-2-[1-(4-methoxyphenyl)-2-methyl-5-(4-methylsulphonylphenyl)-1H-pyrrol-3-yl]acetate]",,,14.7 ± 2.5,1100 nM,,,
"Cc1c(CC(=O)NCCO[N+](=O)[O-])cc(-c2ccc(S(C)(=O)=O)cc2)n1-c1ccc(F)cc1 [Example 23, N-[(2-Nitroxy)ethyl]-2-[1-(4-fluorophenyl)-2-methyl-5-(4-methylsulphonylphenyl)-1H-pyrrol-3-yl]acetamide]",4900 nM,68 ± 6%,,240 nM,,135 °C,"NO release properties pIC50 (vasorelaxing potency) [1, 5]: 5.31 ± 0.05"
Cc1c(CCOCCO)cc(-c2ccc(S(C)(=O)=O)cc2)n1-c1cccc(F)c1 [Example 38-II],,,17.3 ± 3.5,46 nM,26.8 ± 3.2,,
Cc1c(CCOCCO)cc(-c2ccc(S(C)(=O)=O)cc2)n1-c1ccc(F)c(F)c1 [Example 39-II],,,,420 nM,24.8 ± 3.0,138 to 140 °C,
"O=C(NCCO[N+](=O)[O-])c1cccnc1 [Nicorandil, reference compound]",,,,,,,Maximum release (%) (rat liver homogenate): 18 ± 2%
